Molecular target: T1, AmxMT1 (Candidatus Brocadia fulgida, UniProt A0A0M2USF2)
T1 construct: gene BROFUL_02287; five N-terminal residues removed; C-terminal TEV site and 6xHis tag, His tag cleaved; codon-optimised, pET28b, E. coli C43(DE3) with pGro7; one molecule in the asymmetric unit
T1 sequence (A0A0M2USF2 6-354): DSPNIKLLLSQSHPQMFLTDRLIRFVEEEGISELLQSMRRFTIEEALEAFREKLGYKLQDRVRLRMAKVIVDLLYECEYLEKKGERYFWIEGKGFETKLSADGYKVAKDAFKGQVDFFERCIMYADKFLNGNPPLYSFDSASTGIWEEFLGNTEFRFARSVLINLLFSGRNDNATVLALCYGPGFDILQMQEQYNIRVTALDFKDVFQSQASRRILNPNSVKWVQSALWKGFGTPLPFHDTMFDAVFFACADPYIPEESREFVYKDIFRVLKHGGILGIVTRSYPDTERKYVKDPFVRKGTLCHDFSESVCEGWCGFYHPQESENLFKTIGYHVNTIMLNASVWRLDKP
Assay: X-ray crystal structure of the complex (SAD phasing, molecular replacement)
Format: binding
Settings: SAM (2.25 mM) added for crystallization, SAH found in the crystal; 5 mM DTT; HEPES pH 7.0, PEG 2000, 20 °C; cosubstrate pocket between core domain and inserted helix

Nc1ncnc2c1ncn2[C@@H]1O[C@H](CSCC[C@H](N)C(=O)O)[C@@H](O)[C@H]1O [SAH]
X-ray crystal structure of the complex (SAD phasing, molecular replacement): S-adenosyl-L-homocysteine (SAH) is located in the pocket between the core domain and inserted helix
